In one experiment the test system is protoplast of corn root. Description: Reactive oxygen species (ROS) by DCF-DA flow cytometry. Particulars: incubated 5 minutes. The format is cell-based, Zea mays L. The procedure: The corns (Zea mays L) were used according to the following procedures: seeds of Golden cross Bantam were sufficiently washed in the flowing water and immersed in the distilled water for 24 hours. Then, the seeds were arranged in a line on the cultivation dish where the paper wetted with the distilled water was put on the cultivation dish and the ventral side of the seeds was forced to touch with the dish bottom. The seeds were covered with the wetted paper by two folds. […] The individuals having the root length of 1.5-2 cm were selected and used in this experiment. The protoplast of the corn root etiolated was modified according to the following method (Sheen J, Metabolic repression of transcription in higher plants, Plant Cell, 1990 October: 2(10):1027-38). In other words, the protoplast was separated from the two-day etiolated young corn plant. […] The compound was converted into […] by the esterase in the cell, which was in turn oxidized by the reactive oxygen species such as H2O2 and thus changed into 2′, 7′-dichlorofluorescine (DCF) having the highest fluorescence. […]

Experiment [1] relates to Muscat Bailey A (late-season cv.) grapes. Description: Color of grape leaves. The format is in vivo. Particulars: two weeks after treatment; LPE 50 ppm, sodium silicate 100 ppm, 200 GPA; FIGS. 8a to 8c. The procedure: Grapes used in the experiment were Muscat Bailey A (late-season cv.). […] [table] Meanwhile, an observation after two weeks was also carried out for colors of grape leaves.

In experiment [2] the test system is crimson. Briefly: Yield of crimson grapes, each treatment carried out two times consecutively. It is filed as in vivo, Vitis Vinifera sp. The settings on record: two treatments 40 days apart, LPE 50 ppm, potassium silicate 100 ppm, 200 GPA, Ethrel 400 ppm, 100 GPA, FIG. 1.
Method: (§1) The grape was selected as a test plant. Crimson and red globe (scientific name: Vitis Vinifera sp.) were used as the grape.
(§2) The control group 2 is the case where they are treated with Ethrel, which is widely sold and used as a plant growth regulator, in an amount of 400 ppm, 100 GPA.
(§3) The control group 3 is such that it is treated with the solution of LPE 10% in an amount of 50 ppm, 200 GPA.
(§4) The solutions were injected in a spray manner, except the control groups 1 and 5. The each treatment was carried out for an area of 5 acres. All treatments were carried out with a typical orchard air blast sprayer.
(§5) All harvests after the each treatment were carried out by the workers belonging to the farm according to the ordinary harvesting method, so that the grapes were harvested in accordance with a commercial standard. The number and grade of the box harvested from the respective treatment row were recorded for each harvest day, with regard to the each treatment.
For the crimson which is cultivated in California, the above 6 treatments were successively carried out two times.
In experiment [3] the test system is crimson. Briefly: Yield of crimson grapes, single application. The format is in vivo, Vitis Vinifera sp. The settings on record: one treatment, LPE 50 ppm, potassium silicate 100 ppm, 200 GPA, FIG. 2.
Method: as §1
The each treatment was carried out for an area of 5 acres. All treatments were carried out with a typical orchard air blast sprayer.
as §5
For the crimson which is cultivated in California, the above 6 treatments were carried out. The treatment was carried out only one time.
The subject of experiment [4] is Muscat Bailey A (late-season cv.) grapes. Briefly: Coloring development of grape fruit. It is filed as in vivo. The settings on record: two weeks after treatment; LPE 50 ppm, sodium silicate 100 ppm, 200 GPA; FIGS. 7a to 7c. An excerpt: Grapes used in the experiment were Muscat Bailey A (late-season cv.). […] [table]
For the next experiment, the system named is mung beans. Briefly: Adventitious root growth of mung beans. It is filed as in vivo. The settings on record: two weeks after treatment; 50 ppm each; FIGS. 9 and 10.
The next experiment has as its system red globe. Description: Yield of red globe grapes, each treatment carried out two times consecutively. The format is in vivo, Vitis Vinifera sp. Particulars: two treatments 40 days apart, LPE 50 ppm, potassium silicate 100 ppm, 200 GPA, FIG. 3.
The subject of experiment [5] is Muscat Bailey A (late-season cv.) grapes. Description: Preservation stability of the grape fruit. Set-up: unit not given here. It is filed as in vivo. Particulars: preserved at room temperature for 14 days. An excerpt:
Grapes used in the experiment were Muscat Bailey A (late-season cv.).
The grapes treated in the Example 3 were harvested, and preserved at a room temperature for 14 days. Then, calculation has been done for a ratio of complete grape fruits that were not decayed or no bruise.

Method for red globe: as §1, §2, §3, §4, §5
For the red globe which is cultivated in California, the above 6 treatments were successively carried out two times.

In the case of lysophosphatidylethanolamine [LPE], the “increase amount of ROS” value in the experiment on protoplast of corn root (LPE 20 ppm (combination: + sodium silicate 40 ppm)) and with protoplast of corn root (LPE 50 ppm (combination: + sodium silicate 100 ppm)) was 200-300% each time. In experiment [1], the “colors of grape leaves” value is recorded as “many leaves become discolored to yellow”. Moreover, the “yield of the grapes (ranking of groups)” value in the experiment on crimson [2] is “smaller than those of the control groups 1 and 5 which were not treated”. The substance further came in with a yield in the experiment on crimson [3] of 96.3. Moreover, the colors of grapes result in experiment [4] is “excellent in the order of the experimental group 4, the control group 11, and the control group 10”. The “length of the adventitious roots” value in the experiment on mung beans was “the length thereof is short”. The “number of the adventitious roots” value in the experiment on mung beans is given as “large number”. In addition, the “increase of yield as compared to the control groups 1 and 5, which were not treated” value in the experiment on red globe is listed as “about 22 boxes”. The “ratio of complete grape fruits that were not decayed or no bruise” value in experiment [5] (Average of 6 repeats) was determined as 6.9; in experiment [5] (Repeat 1) it was 14.2; in experiment [5] (Repeat 2), 15.6; in experiment [5] (Repeat 3) it was 4.0; in experiment [5] (Repeat 4) it was 0; in experiment [5] (Repeat 5) it was 3.7. For the same substance, the “ratio of complete grape fruits that were not decayed or no bruise” value in experiment [5] (Repeat 6) stood at 3.7.

The record behind these values is US20100255990A1, “METHOD, COMPOSITION AND KIT FOR PROMOTIONG PLANT GROWTH AND IMPROVING PLANT PRESERVATION” (Doosan Corporation, priority 2005, published 2010).
